34 compounds from patent US20220079924A1, “GLUCOCORTICOID RECEPTOR MODULATORS” (ORIC Pharmaceuticals, Inc., priority 2018, published 2022) can be followed below.

This assay has as its target T1, GR (Homo sapiens, UniProt P04150).
T1 construct: expressed in transfected cells; host or cells: CHO-K1 (CHO-K1-GR-MMTV-Luc reporter cells)
T1 sequence (P04150 1-777): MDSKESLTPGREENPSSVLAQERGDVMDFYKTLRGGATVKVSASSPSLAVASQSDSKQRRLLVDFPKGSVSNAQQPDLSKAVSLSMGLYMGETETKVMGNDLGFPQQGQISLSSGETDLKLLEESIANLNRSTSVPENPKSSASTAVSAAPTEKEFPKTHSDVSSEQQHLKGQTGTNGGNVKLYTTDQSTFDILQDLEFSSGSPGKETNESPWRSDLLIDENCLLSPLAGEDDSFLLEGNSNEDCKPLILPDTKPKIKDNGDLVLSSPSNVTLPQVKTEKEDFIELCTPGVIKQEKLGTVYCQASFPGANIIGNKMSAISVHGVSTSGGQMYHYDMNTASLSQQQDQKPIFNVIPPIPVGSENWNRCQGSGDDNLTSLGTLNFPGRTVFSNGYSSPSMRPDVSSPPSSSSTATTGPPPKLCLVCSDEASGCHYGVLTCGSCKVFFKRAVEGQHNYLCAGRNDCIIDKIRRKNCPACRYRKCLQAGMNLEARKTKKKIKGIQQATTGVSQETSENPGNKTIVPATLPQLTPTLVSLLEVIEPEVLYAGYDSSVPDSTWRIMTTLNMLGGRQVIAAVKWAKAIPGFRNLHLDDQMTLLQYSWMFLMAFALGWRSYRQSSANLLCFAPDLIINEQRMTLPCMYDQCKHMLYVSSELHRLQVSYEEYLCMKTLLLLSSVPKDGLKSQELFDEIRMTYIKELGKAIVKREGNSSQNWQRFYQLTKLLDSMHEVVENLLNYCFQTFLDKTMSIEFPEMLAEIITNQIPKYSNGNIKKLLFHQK
In words: In Vitro GR Luciferase Reporter Assay (antagonist assay). It is filed as cell-based. The note with it: CHO-K1-GR-MMTV-Luc reporter cells, 10 nM Dexamethasone, 18-24 hours. The procedure: Example A: In Vitro GR Luciferase Reporter Assay
Cell Line: CHO-K1-GR-MMTV-Luc reporter cells
Culture Media: DMEM (with phenol red)+10% FBS
Assay Media: DMEM (without phenol red)+10% CSS
Culture CHO-K1-GR-MMTV-Luc reporter cells in T175 flasks in Culture Media at conditions less than 90% confluence.
Using Bravo (Agilent) liquid handler:
200× DMSO 1:3 serial dilutions of control and test compounds in 96-well non-sterile V bottom plate in DMSO, 12 points for each compound were prepared.
Prepared 5× compound serial dilutions: Add 97.5 μL/well of Assay Media into 96-well non-sterile V bottom plate then added 2.5 ul of 200× concentration of compounds and mix well.
Seeded cells for Antagonist Assay: 5200 CHO-K1-GR-MMTV-Luc reporter cells were seeded in Greiner #781080 flat clear bottom 384-well white TC plate in 20 ul of Assay Media containing 12.5 nM Dexamethasone (final concentration=10 nM).
Added compounds: 5 μl of 5× compounds were added to appropriate wells and followed with a quick spin (1000 rpm, 10 sec) to bring media and cells to the bottom of plate. The plates were covered with SealMate film to avoid evaporation and placed in 37° C. incubator for approximately 18-24 hours.
Read plates: Equilibrate appropriate amount of Promega OneGlo luciferase reagent to room temperature. Remove the plates from incubator and add 25 uL of OneGlo reagent/well by Bravo and read the plates on Tecan Spark plate reader within 15 minutes.
The ability of the compounds disclosed herein to inhibit GR activity was quantified and the respective IC50 value was determined. Table 1 provides the cellular IC50 values of compounds disclosed herein.

On to `Cn1cnc(S(=O)(=O)N(C2CC2)[C@H]2CCC3=Cc4c(cnn4-c4ccc(F)cn4)C[C@]3(C(=O)c3ncc(C(C)(C)C)s3)C2)n1` [Example 65], for which the IC50 was at most 100 nM.

`CC(C)N([C@H]1CCC2=Cc3c(cnn3-c3ccc(F)nc3)C[C@]2(C(=O)c2cc(F)ccn2)C1)S(=O)(=O)c1ncn(C)n1` [Example 66] yielded a 50% inhibitory concentration (IC50) of at most 100 nM.

In the case of `Cn1ccc(S(=O)(=O)N(C2CC2)[C@H]2CCC3=Cc4c(cnn4-c4ccc(F)cc4)C[C@]3(C(=O)c3cc(Cl)ccn3)C2)c1` [Example 67], the IC50 is at most 100 nM.

`CC(C)N([C@H]1CCC2=Cc3c(cnn3-c3ccc(F)nc3)C[C@]2(C(=O)c2cc(F)ccn2)C1)S(=O)(=O)c1cnn(C)c1` [Example 68] displayed a half-inhibitory concentration (IC50) of at most 100 nM.

Compound `CC(C)N([C@H]1CCC2=Cc3c(cnn3-c3ccc(F)nc3)C[C@]2(C(=O)c2cc(C(F)(F)F)ccn2)C1)S(=O)(=O)c1cnn(C)c1` [Example 69] returned an IC50 of at most 100 nM.

`Cn1cnc(S(=O)(=O)N(C2CC(F)(F)C2)[C@H]2CCC3=Cc4c(cnn4-c4ccc(F)nc4)C[C@]3(C(=O)c3cc(F)ccn3)C2)n1` [Example 70] came in with an IC50 of at most 100 nM.

`Cn1cc(S(=O)(=O)N(C2CC(F)(F)C2)[C@H]2CCC3=Cc4c(cnn4-c4ccc(F)nc4)C[C@]3(C(=O)c3cc(F)ccn3)C2)cn1` [Example 71] gave an IC50 of at most 100 nM.

The compound `Cn1cc(-n2ncc3c2C=C2CC[C@H](N(C4CC4)S(=O)(=O)c4ccc(F)cc4)C[C@@]2(C(=O)c2cc(C(F)(F)F)ccn2)C3)ccc1=O` [Example 73] gave an IC50 of over 1000 nM.

On to `Cn1cc(S(=O)(=O)N(C2CC2)[C@H]2CCC3=Cc4c(cnn4-c4ccc(F)cn4)C[C@]3(C(=O)c3cc(C(F)(F)F)ccn3)C2)cn1` [Example 74], for which the IC50 is at most 100 nM.

Compound `Cn1cnc(S(=O)(=O)N(C2CC(F)(F)C2)[C@H]2CCC3=Cc4c(cnn4-c4ccc(F)nc4)C[C@]3(C(=O)c3cc(C(C)(C)C)ccn3)C2)n1` [Example 75] registered an IC50 of at most 100 nM.

For `Cn1cc(S(=O)(=O)N(C2CC(F)(F)C2)[C@H]2CCC3=Cc4c(cnn4-c4ccc(F)nc4)C[C@]3(C(=O)c3cc(C(C)(C)C)ccn3)C2)cn1` [Example 76], the concentration for half-maximal inhibition (IC50) is at most 100 nM.

`CC([C@H]1CCC2=Cc3c(cnn3-c3ccc(F)cc3)C[C@]2(C(=O)c2cc(F)ccn2)C1)S(=O)(=O)c1ncn(C)n1` (stereo partly shown) [Example 77] had an IC50 of at most 100 nM.

As to `Cn1cnc(S(=O)(=O)N(CC(F)(F)F)[C@H]2CCC3=Cc4c(cnn4-c4ccc(F)nc4)C[C@]3(C(=O)c3cc(F)ccn3)C2)n1` [Example 78], the half-maximal inhibitory concentration (IC50) is at most 100 nM.

The compound `CC(C)N([C@H]1CCC2=Cc3c(cnn3-c3ccc(F)cc3)C[C@]2(C(=O)c2cc(F)ccn2)C1)S(=O)(=O)c1cnn(C)c1` [Example 79] came in with an IC50 of at most 100 nM.

Consider `Cn1cc(S(=O)(=O)N(C2CC2)[C@H]2CCC3=Cc4c(cnn4-c4ccc(F)cc4)C[C@]3(C(=O)c3cc(F)ccn3)C2)cn1` [Example 80], for which the IC50 is at most 100 nM.

The compound `CC(C)N([C@H]1CCC2=Cc3c(cnn3-c3ccc(F)cc3)C[C@]2(C(=O)c2cc(F)ccn2)C1)S(=O)(=O)c1ncn(C)n1` [Example 81] registered an IC50 of at most 100 nM.

As for `Cn1cnc(S(=O)(=O)N(CC(F)(F)F)[C@H]2CCC3=Cc4c(cnn4-c4ccc(F)cc4)C[C@]3(C(=O)c3cc(F)ccn3)C2)c1` [Example 82], the IC50 is at most 100 nM.

In turn, `C[C@H]([C@H]1CCC2=Cc3c(cnn3-c3ccc(F)cc3)C[C@]2(C(=O)c2cc(F)ccn2)C1)S(=O)(=O)c1ncn(C)n1` [Example 83] showed an IC50 of at most 100 nM.

Turning to `CC(C)N([C@H]1CCC2=Cc3c(cnn3-c3ccc(F)nc3)C[C@]2(C(=O)c2cc(F)ccn2)C1)S(=O)(=O)c1ccn(C)n1` [Example 84], the IC50 is at most 100 nM.

For `CC(C)N([C@H]1CCC2=Cc3c(cnn3-c3ccc(F)nc3)C[C@]2(C(=O)c2cc(Cl)ccn2)C1)S(=O)(=O)c1ccn(C)n1` [Example 85], the IC50 is at most 100 nM.

In turn, `C[C@H]([C@H]1CCC2=Cc3c(cnn3-c3ccc(F)cc3)C[C@]2(C(=O)c2cc(Cl)ccn2)C1)S(=O)(=O)c1ncn(C)n1` [Example 86] yielded a 50% inhibitory concentration (IC50) of at most 100 nM.

`CC(C)N([C@H]1CCC2=Cc3c(cnn3-c3ccc(F)cc3)C[C@]2(C(=O)c2cc(F)ccn2)C1)S(=O)(=O)c1cn(C)cn1` [Example 87] yielded an IC50 of at most 100 nM.

The compound `Cn1ccc(S(=O)(=O)C(C)(C)[C@H]2CCC3=Cc4c(cnn4-c4ccc(F)cc4)C[C@]3(C(=O)c3cc(C(F)(F)F)ccn3)C2)n1` [Example 88] returned an IC50 of at most 100 nM.

`Cn1ccc(S(=O)(=O)N(C2CC2)[C@H]2CCC3=Cc4c(cnn4-c4ccc(F)nc4)C[C@]3(C(=O)c3cc(F)ccn3)C2)n1` [Example 89] registered an IC50 of at most 100 nM.

`Cn1cnc(S(=O)(=O)[C@H]2CCC3=Cc4c(cnn4-c4ccc(F)cc4)C[C@]3(C(=O)c3cc(C(F)F)ccn3)C2)n1` [Example 90] displayed an IC50 of at most 100 nM.

`Cn1cnc(S(=O)(=O)[C@H]2CCC3=Cc4c(cnn4-c4ccc(F)cc4)C[C@]3(C(=O)c3ccc(F)cn3)C2)n1` [Example 91] gave an IC50 of at most 100 nM.

With `Cn1cnc(S(=O)(=O)[C@H]2CCC3=Cc4c(cnn4-c4ccc(F)cc4)C[C@]3(C(=O)c3ccc(C(F)F)cn3)C2)n1` [Example 92], the 50% inhibitory concentration (IC50) was at most 100 nM.

In the case of `CCn1cnc(S(=O)(=O)[C@H]2CCC3=Cc4c(cnn4-c4ccc(F)cc4)C[C@]3(C(=O)c3ccc(C(F)(F)F)cn3)C2)n1` [Example 93], the IC50 is at most 100 nM.

`CCN([C@H]1CCC2=Cc3c(cnn3-c3ccc(F)nc3)C[C@]2(C(=O)c2cc(F)ccn2)C1)S(=O)(=O)c1ncn(C)n1` [Example 94] gave an IC50 of at most 100 nM.

For `O=C(c1ccc(C2CC2)cn1)[C@]12Cc3cnn(-c4ccc(F)cc4)c3C=C1CC[C@H](S(=O)(=O)c1ncn(CC(F)(F)F)n1)C2` [Example 95], the IC50 was at most 100 nM.

`Cn1cnc(S(=O)(=O)N(C2CC2)[C@H]2CCC3=Cc4c(cnn4-c4ccc(F)cc4)C[C@]3(C(=O)c3cc4c(cn3)OCCO4)C2)n1` [Example 96]: the IC50 was at most 100 nM.

In the case of `Cn1cnc(S(=O)(=O)[C@H]2CCC3=Cc4c(cnn4-c4ccc(F)cc4)C[C@]3(C(=O)c3cc4c(cn3)OCCO4)C2)n1` [Example 97], the IC50 was at most 100 nM.

In the case of `Cn1cc(S(=O)(=O)N[C@H]2CCC3=Cc4c(cnn4-c4ccc(F)cc4)C[C@]3(C(=O)c3cc(F)ccn3)C2)cn1` [Example 98], the IC50 lay within 100 to 1000 nM.

For `O=C(c1cc(F)ccn1)[C@]12Cc3cnn(-c4ccc(F)cc4)c3C=C1CC[C@H](N(C1CC(F)(F)C1)S(=O)(=O)c1cn[nH]c1)C2` [Example 99], the IC50 is at most 100 nM.
